According to patent US20100272710A1, “COMPOSITIONS AND METHODS FOR TREATING AND PREVENTING AGING-ASSOCIATED DISEASES” (priority 2009, published 2010):
Where two headings read alike, the source gives them in different places.

How the values were obtained:
[1] = target: glucose 6 phosphate dehydrogenase, G6PD (Homo sapiens, UniProt P11413); assay: G6PD activity in protein extract (NADPH production); details: 30 min at 37° C.; for activity of G6PD: protein extract 100 ug
Protocol: Protein extract (100 _g) was incubated with DHEA or resveratrol at the indicated concentrations, after 30 min at 37° C., the activity of G6PD was measured as described in the methods section.

TXNIP [2] = assay: TXNIP expression in organs of treated mice (Western blot); type: in vivo; details: CD1 mice, 10 mg/Kg i.p., 2 days
Protocol: (§1) Tissue distribution of Sirt1 and TXNIP in mice and their regulation by resveratrol and DHEA. Mice CD1 strain were injected (i.p.) with 10 mg/Kg of either resveratrol or DHEA and after 2 days, the animals were sacrificed and organs harvested and processed by Western blot for the expression of Sirt1 and TXNIP. Staining with GAPDH was used as a loading control.
(§2) In order to determine whether the observed effects in vitro could be also valid in vivo, we have subjected the nude mice (CD1 strain, Charles River) to treatment with either resveratrol or DHEA (10 mg/Kg each) for 2 days. The animals were then sacrificed and major organs harvested to analyze expression of Sirt1 and TXNIP by Western blot.

TXNIP [3] = assay: Western blot of TXNIP expression in aortic smooth muscle cells; type: cell-based
Protocol: (§3) Effects of limited glucose availability, resveratrol and DHEA on expression of TXNIP and Sirt1 in normal cells. Aortic smooth muscle cells (4A) and human embryonic stem cells (4B) were treated as described in FIG. 1 for cancer cells. Expression Sirt1 and TXNIP were analyzed by Western blot using specific antibodies. Antibody to GAPDH was used as loading control. (Glc: glucose; Resv: Resveratrol).
(§4) In order to obtain information on the physiological relevance of targeting Sirt1 and TXNIP in normal tissues, we investigated the effect of limited glucose availability, resveratrol and DHEA in differentiated aortic smooth muscle cells, and non-differentiated, human embryonic stem cells.

Sirt1 [4] = assay: Sirt1 expression in organs of treated mice (Western blot); type: in vivo; details: CD1 mice, 10 mg/Kg i.p., 2 days
Protocol: as §1, §2

Sirt1 [5] = type: cell-based; details: aortic smooth muscle cells, Western blot
Protocol: as §3, §4

Sirt1 [6] = assay: Western blot of Sirt1 expression in human embryonic stem cells BG01V; type: cell-based
Protocol: as §3
(§5) To test whether cellular proliferative capacity may account for this difference, we measured expression of Sirt1 and TXNIP in embryonic stem cells known for rapid self renewal ability. The human embryonic stem cells, BG01V, were subjected to glucose restriction or treatment with either resveratrol or DHEA under similar conditions to those described in FIG. 4. […] In contrast, the consistent inhibition of TXNIP by limited glucose availability in cancer cells as well as in differentiated smooth muscle cells and non-differentiated stem cells, is indicative of a potential role of this gene in mediating the anti-aging action of calorie restriction.

TXNIP [7] = assay: Western blot of TXNIP expression in cancer cells (SaOS2, RGC); type: cell-based; details: for expression of TXNIP: increasing concentrations, Western blot
Protocol: (§6) SaOS2 cells were incubated in the presence of reduced glucose levels in the culture medium for 48 hours. Expression of TXNIP and Sirt1 were determined by Western blot using specific antibodies. Antibody to _-Actin was used as a loading control.
(§7) The RGC (4C) and SaOS2 (4D) cells were subjected to treatment with increasing concentrations of resveratrol (Resv.) for 48 hours followed by Western blot as described in Panel A.
(§8) SaOS2 cells were treated with increasing amounts of DHEA and probed for expression of Sirt1 and TXNIP; beta-actin was used as a loading control.
The cells were treated with different concentrations of glucose with or without DHEA. After 48 hours in cultures, proteins were separated by electrophoresis and probed for TXNIP. Staining with beta-actin antibody was used as a loading control.
(§9) The effects of limited glucose availability (used here to mimic the effect of calorie restriction), resveratrol (an activator of Sirt1) and DHEA (used for hormone replacement therapy), on the expression of TXNIP and Sirt1 were determined by Western blot using specific antibodies to the corresponding proteins (FIG. 4).

TXNIP [8] = assay: Western blot of TXNIP expression in human embryonic stem cells BG01V; type: cell-based
Protocol: as §3, §5

AMPK = assay: Phosphorylation of AMPK in cells (Western blot, anti-phospho-AMPK Thr172); type: cell-based; details: for AMPK phosphorylation: osteosarcoma cells SaOS2, 48 hours
Protocol: SaOS2 cells were treated with increasing concentrations of resveratrol for 48 hours, after what, proteins were extracted and probed either with anti-phospho-AMPK (Thr172), or with antibody to AMPK.
RGC cells were incubated with 20 or 100 μM resveratrol or DHEA 100 μM for 48 hours, and then probed for phosphor-AMPK and AMPK as described above.
However, the relevance of this action to the regulation of TXNIP by resveratrol and the possible implication of DHEA in regulating this pathway are not yet investigated. […] Further confirmation of this link will help establish TXNIP inhibition as an important determinant for evaluating the efficacy of putative anti-aging interventions.

Sirt1 [9] = type: cell-based; details: increasing concentrations, Western blot
Protocol: as §6, §7, §8, §9

[10] = retinal glial cells (RGC), 48 hours

Sequence of glucose 6 phosphate dehydrogenase, G6PD (P11413 whole entry): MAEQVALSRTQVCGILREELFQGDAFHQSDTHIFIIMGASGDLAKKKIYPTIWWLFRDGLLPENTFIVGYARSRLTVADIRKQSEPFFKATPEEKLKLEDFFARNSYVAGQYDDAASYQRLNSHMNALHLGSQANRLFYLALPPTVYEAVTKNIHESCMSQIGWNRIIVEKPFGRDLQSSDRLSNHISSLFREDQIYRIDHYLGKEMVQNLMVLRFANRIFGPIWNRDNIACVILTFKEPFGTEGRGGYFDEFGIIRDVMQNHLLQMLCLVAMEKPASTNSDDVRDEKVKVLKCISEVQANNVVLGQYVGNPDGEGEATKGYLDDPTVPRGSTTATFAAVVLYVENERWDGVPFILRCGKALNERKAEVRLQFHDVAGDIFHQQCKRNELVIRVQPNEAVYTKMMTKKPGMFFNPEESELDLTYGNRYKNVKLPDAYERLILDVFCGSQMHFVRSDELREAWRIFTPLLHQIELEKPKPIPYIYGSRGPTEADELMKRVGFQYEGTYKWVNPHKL

Structure (SMILES) | activity of G6PD [1] | inhibitory effect on G6PD observed ([1]; protein extract, assay based on production of NADPH) [%] | expression of TXNIP in the lung (TXNIP [2]) | expression of TXNIP in the muscle (TXNIP [2]) | expression of TXNIP (TXNIP [3]) | expression of Sirt1 in most tissues (Sirt1 [4]) | expression of Sirt1 (Sirt1 [5]) | expression of Sirt1 (Sirt1 [6]) | expression of TXNIP (TXNIP [7]; SaOS2 cells) | effects of glucose on TXNIP expression after pre-treatment (TXNIP [7]; cells with different concentrations of glucose with or without DHEA, 48 hours) | expression of TXNIP (TXNIP [8]) | AMPK phosphorylation (AMPK) | expression of Sirt1 (Sirt1 [9]; SaOS2 cells) | expression of TXNIP (TXNIP [7]; RGC cells, 48 hours) | AMPK phosphorylation (p-AMPK) (AMPK; [10]) | expression of AMPK (AMPK; [10]) | expression of Sirt1 (Sirt1 [9]; RGC cells, 48 hours)
C[C@]12CC[C@H](O)CC1=CC[C@@H]1[C@@H]2CC[C@]2(C)C(=O)CC[C@@H]12 [DHEA, dehydroepiandrosterone] | strongly inhibited and in a dose dependent manner | 50 | inhibited the expression | inhibitory effect | without effect | not significantly affect | without effect | none of these genes was affected | decreased expression | almost completely blocked | none of these genes was affected | without effect | decreased expression |  |  |  | 
Oc1ccc(C=Cc2cc(O)cc(O)c2)cc1 [resveratrol] | no effect |  | inhibited the expression | only DHEA had an inhibitory effect in the muscle | inhibited the expression of TXNIP in a dose dependent manner | not significantly affect | no significant changes in Sirt1 expression | none of these genes was affected | stimulatory action at low concentrations and inhibition at higher ones |  | none of these genes was affected | induced AMPK phosphorylation | suppressed the expression | stimulatory action at low concentrations and inhibition at higher ones | readily activates | without affecting expression | suppressed the expression
